This passage reports IC50 results from patent US8921424B2, “Histone deacetylase inhibitors, process for preparation and uses thereof” (Zhejiang Hisun Pharmaceutical Co. Ltd., priority 2007, dated 2014).

Where two headings read alike, the source gives them in different places.

For one test, the system named is HDACs. In words: In vitro HDACi assay (BIOMOL fluorescent-based HDAC activity assay). It is filed as biochemical. As to the method: (§1) In Vitro HDACi Assay for Determination of IC50 Values
(§2) The assay has been carried out in white 96 well formats according to the BIOMOL's method. […] The reaction mixture was incubated at room temperature for 2 hours. Flur de lys Developer was added and the reaction was incubated for 10 min. Briefly, deacetylation of the substrate sensitizes to the developer, which then generates a fluorophore. The fluorophore is excited with 360 nm light and the emitted light (460 nm) is detected on a fluorometric plate reader (Molecular Device Ultra Microplate detection system, MD Group Ltd).
(§3) The analytical software, Prism 4.0 (GraphPad Software Inc) has been used to generate IC50 from a series of data.

For a further test, the target named is HDAC6 (Homo sapiens (Human), UniProt Q9UBN7). In words: In vitro HDACi assay, HDAC6. It is filed as biochemical. As to the method:
as §1, §2, §3

[1] abbreviates: Table 3, read-out: IC50 (nM) HDACs.
The mark [2] stands for this setting: Table 4, read-out: HDAC enzyme inhibition activity IC50.

HDAC6, sequence (Q9UBN7 whole entry, species assumed): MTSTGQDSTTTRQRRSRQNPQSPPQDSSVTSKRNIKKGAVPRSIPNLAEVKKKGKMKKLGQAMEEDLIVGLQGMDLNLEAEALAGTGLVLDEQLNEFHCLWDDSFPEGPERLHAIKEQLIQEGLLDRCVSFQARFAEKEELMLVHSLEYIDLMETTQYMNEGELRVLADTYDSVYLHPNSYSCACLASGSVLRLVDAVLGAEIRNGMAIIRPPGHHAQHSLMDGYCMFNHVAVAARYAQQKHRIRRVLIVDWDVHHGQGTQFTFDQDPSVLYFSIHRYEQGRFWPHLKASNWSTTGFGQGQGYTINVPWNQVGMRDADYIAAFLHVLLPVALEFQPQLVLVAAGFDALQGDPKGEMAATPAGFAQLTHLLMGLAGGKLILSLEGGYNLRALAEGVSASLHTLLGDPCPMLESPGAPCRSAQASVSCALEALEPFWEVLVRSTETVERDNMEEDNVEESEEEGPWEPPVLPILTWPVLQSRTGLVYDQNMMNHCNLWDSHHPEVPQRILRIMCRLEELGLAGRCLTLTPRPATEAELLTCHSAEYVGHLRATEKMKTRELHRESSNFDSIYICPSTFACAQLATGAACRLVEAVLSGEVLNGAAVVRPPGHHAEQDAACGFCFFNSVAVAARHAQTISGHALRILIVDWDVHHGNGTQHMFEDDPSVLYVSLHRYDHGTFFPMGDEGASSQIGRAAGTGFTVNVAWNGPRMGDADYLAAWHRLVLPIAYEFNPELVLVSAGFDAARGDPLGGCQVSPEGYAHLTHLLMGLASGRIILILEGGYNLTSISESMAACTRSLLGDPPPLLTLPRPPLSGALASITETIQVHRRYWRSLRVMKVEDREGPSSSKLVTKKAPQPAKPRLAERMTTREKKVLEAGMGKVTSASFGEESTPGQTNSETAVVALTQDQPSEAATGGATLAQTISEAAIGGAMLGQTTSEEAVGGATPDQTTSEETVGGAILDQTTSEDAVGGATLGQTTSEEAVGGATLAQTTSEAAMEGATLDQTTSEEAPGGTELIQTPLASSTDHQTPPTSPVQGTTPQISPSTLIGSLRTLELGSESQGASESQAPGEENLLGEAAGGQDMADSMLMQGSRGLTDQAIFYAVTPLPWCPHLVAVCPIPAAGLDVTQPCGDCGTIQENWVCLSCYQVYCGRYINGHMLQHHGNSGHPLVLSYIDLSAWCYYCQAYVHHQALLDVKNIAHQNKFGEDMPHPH

As to `CCCCCNc1cc(/C=C/C(=O)NO)ccc1SCCN(CC)CC` [Example 2, 3-(4-(2-(diethylamino)ethylthio)-3-(pentylamino)phenyl)-N-hydroxy-acrylamide], the IC50 in the test with HDACs (setting [1]) came out at 21 nM; in the test on HDACs (setting [2]), 21000 nM; on HDAC6 (Table 3, read-out: IC50 (nM) HDAC6) it was 578 nM.
`CCCCc1nc2cc(/C=C/C(=O)NO)ccc2n1CCN(CC)CC` [SB939, reference compound]: the IC50 in the test with HDACs (setting [1]) amounted to 18 nM; in the test with HDACs (setting [2]), 18000 nM; against HDAC6 it was 488 nM.
